Assay results: patent US20030215462A1, “Use of UGT inhibitors to increase bioavailability” (priority 2001, published 2003)
Several values for one entry are separate records, joined by “and”; a condition that tells them apart may be missing. Equal entries are not always repeated.

What was measured:
[1] = test system: T1, UGT enzymes of human liver microsomes; test: Inhibition of 7-HFC glucuronidation in human liver microsomes; format: biochemical; conditions: for % of control metabolism (SD, n = 3), 7-HFC glucuronidation: human liver microsomes 100 μg/ml
T1 construct: percentage of control metabolism, 7-HFC glucuronidation; percentage of control metabolism, 7-HFC glucuronidation

[2] = test system: UGT enzymes of human liver microsomes; test: Inhibition of estradiol (E2) glucuronidation in human liver microsomes; format: biochemical; conditions: liver 062101; E2 50 μM; inhibitor 50 μM
Text: (§1) Compounds were eluted using a binary solvent gradient system where solvent A was dilute phosphoric acid (pH 3) and solvent B was 80:20 acetonitrile-methanol. […] Detection was at 280 nm.

[3] = test system: T2, UGT enzymes of human liver microsomes; test: as above; format: biochemical; conditions: liver 032101; E2 50 μM; inhibitor 50 μM
T2 construct: residual metabolism (% of control), E2-17-β-D-glucuronide; other: liver 032101; residual metabolism (% of control), E2-17-β-D-glucuronide
Text: as §1

[4] = test system: T3, UGT enzymes of human liver microsomes; test: as above; format: biochemical; conditions: liver 032101; E2 50 μM; inhibitor 50 μM
T3 construct: residual metabolism (% of control), E2-3-β-D-glucuronide; other: liver 032101; residual metabolism (% of control), E2-3-β-D-glucuronide
Text: as §1

UGT1A1 = biological target: T4, UGT1A1 (Homo sapiens, UniProt P22309); test: in vitro
T4 sequence (P22309 26-533): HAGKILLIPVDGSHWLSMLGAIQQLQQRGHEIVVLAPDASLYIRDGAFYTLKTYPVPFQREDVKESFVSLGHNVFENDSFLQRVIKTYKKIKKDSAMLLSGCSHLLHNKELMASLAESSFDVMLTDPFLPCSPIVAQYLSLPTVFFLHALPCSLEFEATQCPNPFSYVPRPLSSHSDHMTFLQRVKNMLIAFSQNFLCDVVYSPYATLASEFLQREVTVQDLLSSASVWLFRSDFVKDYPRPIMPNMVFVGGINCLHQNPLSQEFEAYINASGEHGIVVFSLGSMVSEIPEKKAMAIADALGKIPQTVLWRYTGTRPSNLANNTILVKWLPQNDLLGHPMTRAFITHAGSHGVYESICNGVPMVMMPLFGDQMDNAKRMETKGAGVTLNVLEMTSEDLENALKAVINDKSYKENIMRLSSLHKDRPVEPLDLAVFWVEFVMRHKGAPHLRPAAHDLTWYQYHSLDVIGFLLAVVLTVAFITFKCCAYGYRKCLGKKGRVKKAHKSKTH
Protocol: (§2) Compounds were eluted using a binary solvent gradient system. Solvent A was water brought to pH 8 with NH4OH. Solvent B was methanol. Solvent flow rate was 1 ml/min and the column temperature was maintained at 50° C. Detection was at 280 nm. […] The system was then returned to the initial conditions and equilibrated for 3 min.

UGT1A10 = biological target: T5, UGT1A10 (Homo sapiens, UniProt Q9HAW8); test: in vitro; conditions: pH 7.5, % of control metabolism
T5 sequence (Q9HAW8 26-530): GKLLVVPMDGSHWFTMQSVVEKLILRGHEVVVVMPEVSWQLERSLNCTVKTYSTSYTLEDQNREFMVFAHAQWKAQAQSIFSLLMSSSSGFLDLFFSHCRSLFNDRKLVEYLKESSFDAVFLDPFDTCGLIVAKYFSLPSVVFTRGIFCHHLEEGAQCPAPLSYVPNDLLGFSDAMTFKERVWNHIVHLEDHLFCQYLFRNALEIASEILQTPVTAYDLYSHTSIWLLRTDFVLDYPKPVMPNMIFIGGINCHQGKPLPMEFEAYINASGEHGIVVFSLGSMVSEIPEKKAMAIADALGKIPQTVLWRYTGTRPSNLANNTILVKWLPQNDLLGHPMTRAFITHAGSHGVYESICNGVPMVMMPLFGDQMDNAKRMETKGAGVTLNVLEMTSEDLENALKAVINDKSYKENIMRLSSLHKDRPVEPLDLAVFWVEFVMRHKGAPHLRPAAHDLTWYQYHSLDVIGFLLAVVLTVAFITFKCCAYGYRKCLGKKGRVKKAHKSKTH
Protocol: as §2

[5] = test system: UGT enzymes of human liver microsomes; test: Inhibition of 2ME2 glucuronidation (MG1, MG2) in human liver microsomes; format: biochemical; conditions: liver 062101; 2ME2 50 μM; inhibitor 10 μM
Text: as §1

UGT1A3 = biological target: T6, UGT1A3 (Homo sapiens, UniProt P35503); test: Inhibition of raloxifene glucuronidation by recombinant UGT1A3 Supersomes; conditions: human; for activity at 15 min, 25 µM: inhibitor 25 μM; for activity at 15 min, 50 µM: inhibitor 50 μM
T6 sequence (P35503 29-534): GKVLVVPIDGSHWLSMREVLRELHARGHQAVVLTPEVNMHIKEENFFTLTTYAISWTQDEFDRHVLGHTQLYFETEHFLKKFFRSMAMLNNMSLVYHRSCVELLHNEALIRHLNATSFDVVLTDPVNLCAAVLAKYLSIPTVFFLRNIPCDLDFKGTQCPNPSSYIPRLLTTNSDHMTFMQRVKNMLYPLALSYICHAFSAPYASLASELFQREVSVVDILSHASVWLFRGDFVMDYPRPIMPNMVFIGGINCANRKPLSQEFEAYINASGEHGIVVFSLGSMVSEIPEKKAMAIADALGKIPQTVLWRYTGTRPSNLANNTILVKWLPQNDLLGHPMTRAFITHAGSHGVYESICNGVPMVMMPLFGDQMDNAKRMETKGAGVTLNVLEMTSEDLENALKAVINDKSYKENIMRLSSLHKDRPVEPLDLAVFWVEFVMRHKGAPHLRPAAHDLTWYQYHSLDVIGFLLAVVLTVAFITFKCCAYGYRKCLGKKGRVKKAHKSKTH
Protocol: as §2

[6] = inhibitor 100 μM, 7-HFC 50 μM, 15 min
[7] = inhibitor 200 μM, 7-HFC 50 μM, 15 min
[8] = inhibitor 500 μM, 7-HFC 50 μM, 15 min
[9] = pH 7.5, % of control metabolism, raloxifene G1
[10] = pH 7.5, % of control metabolism, raloxifene G2
[11] = pH 7.5, Inhibition of raloxifene glucuronidation, G1, UGT1A1
[12] = pH 7.5, Inhibition of raloxifene glucuronidation, G2, UGT1A1
[13] = Supersomes with recombinant human UGT1A3, pH 7.5, probe raloxifene 50 μM, formation of glucuronide G1, % of control metabolism, raloxifene G1, UGT1A3
[14] = Supersomes with recombinant human UGT1A3, pH 7.5, probe raloxifene 50 μM, formation of glucuronide G2, % of control metabolism, raloxifene G2, UGT1A3
[15] = recombinant UGT1A3 Supersomes, pH 7.5, probe raloxifene 50 μM (formation of glucuronide G1), Inhibition of raloxifene glucuronidation, G1, UGT1A3, G1, raloxifene 50 μM, 250 μg/ml Supersomes, 1 mM UDPGA, 15 min
[16] = recombinant UGT1A3 Supersomes, pH 7.5, probe raloxifene 50 μM (formation of glucuronide G2), Inhibition of raloxifene glucuronidation, G2, UGT1A3, G2, raloxifene 50 μM, 250 μg/ml Supersomes, 1 mM UDPGA, 15 min

Compound: O=C(O[C@@H]1Cc2c(O)cc(O)cc2O[C@@H]1c1ccc(O)c(O)c1)c1cc(O)c(O)c(O)c1 [Epicatechin gallate]
- percentage of control metabolism, 7-HFC glucuronidation ([1]; inhibitor 100 μM): 67 (1) %
- % of control metabolism (SD, n = 3), 7-HFC glucuronidation [1, 6]: 67 (1) %
- percentage of control metabolism, 7-HFC glucuronidation ([1]; inhibitor 200 μM): 55 (3) %
- % of control metabolism (SD, n = 3), 7-HFC glucuronidation [1, 7]: 55 (3) %
- percentage of control metabolism, 7-HFC glucuronidation ([1]; inhibitor 500 μM): 10 (1) %
- % of control metabolism (SD, n = 3), 7-HFC glucuronidation [1, 8]: 10 (1) %
- residual metabolism (% of control), E2-3-β-D-glucuronide [2]: 34 (1) %
- residual metabolism (% of control), E2-17-β-D-glucuronide [2]: 67 (1) %
- residual metabolism (% of control), E2-17-β-D-glucuronide [3]: 83 (0) %
- residual metabolism (% of control), E2-3-β-D-glucuronide [4]: 27 (1) %
- activity at 15 min, 25 µM (UGT1A1; [9]): 39%
- activity at 15 min, 50 µM (UGT1A1; [9]): 23%
- activity at 15 min, 25 µM (UGT1A1; [10]): 43%
- activity at 15 min, 50 µM (UGT1A1; [10]): 25%
- activity at 15 min, 25 µM (UGT1A1; [11]): 39%
- activity at 15 min, 50 µM (UGT1A1; [11]): 23%
- activity at 15 min, 25 µM (UGT1A1; [12]): 43%
- activity at 15 min, 50 µM (UGT1A1; [12]): 25%
- activity at 15 min, 50 µM (UGT1A10; raloxifene G1): 54%
- activity at 15 min, 50 µM (UGT1A10; raloxifene G2): 51%

Compound: O=C(O[C@@H]1Cc2c(O)cc(O)cc2O[C@H]1c1cc(O)c(O)c(O)c1)c1cc(O)c(O)c(O)c1 [Gallocatechin gallate]
- IC50 ([1]; 7-HFC 50 μM, 1 mM UDPGA, 15 min): 100 µM
- percentage of control metabolism, 7-HFC glucuronidation ([1]; inhibitor 25 μM): 80 (2) %
- % of control metabolism (SD, n = 3), 7-HFC glucuronidation ([1]; inhibitor 25 μM, 7-HFC 50 μM, 15 min): 80 (2) %
- percentage of control metabolism, 7-HFC glucuronidation ([1]; inhibitor 50 μM): 68 (2) %
- % of control metabolism (SD, n = 3), 7-HFC glucuronidation ([1]; inhibitor 50 μM, 7-HFC 50 μM, 15 min): 68 (2) %
- percentage of control metabolism, 7-HFC glucuronidation ([1]; inhibitor 100 μM): 54 (1) % and 46 (2) %
- % of control metabolism (SD, n = 3), 7-HFC glucuronidation [1, 6]: 54 (1) % and 46 (2) %
- percentage of control metabolism, 7-HFC glucuronidation ([1]; inhibitor 200 μM): 25 (0) %
- % of control metabolism (SD, n = 3), 7-HFC glucuronidation [1, 7]: 25 (0) %
- percentage of control metabolism, 7-HFC glucuronidation ([1]; inhibitor 500 μM): 0 (0) %
- % of control metabolism (SD, n = 3), 7-HFC glucuronidation [1, 8]: 0 (0) %
- residual metabolism (% of control), E2-3-β-D-glucuronide [2]: 33 (2) %
- residual metabolism (% of control), E2-17-β-D-glucuronide [2]: 55 (2) %
- residual metabolism (% of control), E2-17-β-D-glucuronide [3]: 69 (4) %
- residual metabolism (% of control), E2-3-β-D-glucuronide [4]: 24 (1) %
- residual metabolism (% of control), 2ME2 MG1 [5]: 56 (1) %
- residual metabolism (% of control), 2ME2 MG2 [5]: 84 (1) %
- activity at 15 min, 25 µM (UGT1A3; [13]): 65%
- activity at 15 min, 50 µM (UGT1A3; [13]): 39%
- activity at 15 min, 25 µM (UGT1A3; [14]): 70%
- activity at 15 min, 50 µM (UGT1A3; [14]): 38%
- activity at 15 min, 25 µM (UGT1A3; [15]): 64%
- activity at 15 min, 50 µM (UGT1A3; [15]): 39%
- activity at 15 min, 25 µM (UGT1A3; [16]): 70%
- activity at 15 min, 50 µM (UGT1A3; [16]): 38%
